The text below walks through data of patent publication US20240270762A1, “PENICILLIN-BINDING PROTEIN INHIBITORS” (priority 2021, published 2024).

pEC50, pIC50: −log10 of the molar value. Converted amounts (≈) assume the structure as drawn. A value given as a limit tells only on which side of the number the result lay.

In assay [1] the target is T1, PBP3 from Escherichia coli (K-12) (Escherichia coli, UniProt P0AD68).
T1 construct: made in house
Nature of the assay: Bocillin-FL fluorescence polarization competition binding, E. coli PBP3. A digest of the protocol:
(§1)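 Purified PBP was preincubated with inhibitor (E. coli PBP3 1.5 μM, 30 min; P. aeruginosa PBP3 0.75 μM, A. baumannii PBP3 0.2 μM and PBP1a 1 μM, 15 min), then Bocillin-FL (0.1 μM; 0.05 μM for PBP1a) added and FP read up to 60 min. EC50 = 50% loss of bound probe.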
In general terms: In fluorescence polarisation assays a small probe gives low polarisation when free and higher when bound to something large.

Assay [2] addresses T2, PBP3 from Pseudomonas aeruginosa (PAO1) (Pseudomonas aeruginosa, UniProt G3XD46).
T2 construct: made in house
Kind of assay: Bocillin-FL fluorescence polarization competition binding, P. aeruginosa PBP3. Conditions: Binding affinity to P. aeruginosa PBP3; fluorescence polarization competition binding assay using Bocillin-FL; read-out: P. aeruginosa PBP3 Potency. A digest of the protocol: as §1

The test system of the next assay is E. coli ATCC 25922. Nature of the assay: microbe, parasite or virus in culture. In kind it is cell-based. As to conditions: Escherichia coli, ATCC25922, read-out: MIC E. coli 25922.
For another assay, the system named is E. coli AG100A. Kind of assay: Broth microdilution MIC in CAMHB. Type of assay: cell-based. As to conditions: Escherichia coli, read-out: MIC E. coli AG100A. For orientation: In broth dilution the organism is exposed to a series of concentrations in liquid medium.
In a further assay the test system is K. pneumoniae 848844. Kind of assay: microbe, parasite or virus in culture. Type of assay: cell-based. As to conditions: Klebsiella pneumoniae, 848844, read-out: MIC K. pneumoniae 848844.
For another assay, the system named is A. baumannii ATCC 19606. Kind of assay: microbe, parasite or virus in culture. In kind it is cell-based. Conditions: Acinetobacter baumannii, ATCC19606, read-out: MIC, A. baumannii ATCC 19606.
In assay [3] the test system is P. aeruginosa (ΔmexAB-oprM). Nature of the assay: Broth microdilution MIC in CAMHB. Conditions: Pseudomonas aeruginosa; read-out: MIC P. aeruginosa ΔmexAB-oprM. In kind it is cell-based.
Assay [4] relates to N. gonorrhoeae ATCC 49226. Nature of the assay: Liquid broth MIC in Fastidious broth. Conditions: Neisseria gonorrhoeae, ATCC49226, read-out: Minimum Inhibitory Concentration (MIC), N. gonorrhoeae ATCC 49226.
A further assay has as its system N. gonorrhoeae WHO M. Kind of assay: Liquid broth MIC in Fastidious broth. As to conditions: Neisseria gonorrhoeae, read-out: Minimum Inhibitory Concentration (MIC), N. gonorrhoeae WHO M.
In the next assay the test system is N. gonorrhoeae WHO X. Nature of the assay: Liquid broth MIC in Fastidious broth. Conditions: Neisseria gonorrhoeae, read-out: Minimum Inhibitory Concentration (MIC), N. gonorrhoeae WHO X.
The test system of the next assay is N. gonorrhoeae WHO Q. Nature of the assay: Liquid broth MIC in Fastidious broth. As to conditions: Neisseria gonorrhoeae, read-out: Minimum Inhibitory Concentration (MIC), N. gonorrhoeae WHO Q.
A further assay relates to N. gonorrhoeae CDC-0197. Kind of assay: Liquid broth MIC in Fastidious broth. As to conditions: Neisseria gonorrhoeae, CDC0197, read-out: Minimum Inhibitory Concentration (MIC), N. gonorrhoeae CDC-0197.

T1 sequence (P0AD68 1-577): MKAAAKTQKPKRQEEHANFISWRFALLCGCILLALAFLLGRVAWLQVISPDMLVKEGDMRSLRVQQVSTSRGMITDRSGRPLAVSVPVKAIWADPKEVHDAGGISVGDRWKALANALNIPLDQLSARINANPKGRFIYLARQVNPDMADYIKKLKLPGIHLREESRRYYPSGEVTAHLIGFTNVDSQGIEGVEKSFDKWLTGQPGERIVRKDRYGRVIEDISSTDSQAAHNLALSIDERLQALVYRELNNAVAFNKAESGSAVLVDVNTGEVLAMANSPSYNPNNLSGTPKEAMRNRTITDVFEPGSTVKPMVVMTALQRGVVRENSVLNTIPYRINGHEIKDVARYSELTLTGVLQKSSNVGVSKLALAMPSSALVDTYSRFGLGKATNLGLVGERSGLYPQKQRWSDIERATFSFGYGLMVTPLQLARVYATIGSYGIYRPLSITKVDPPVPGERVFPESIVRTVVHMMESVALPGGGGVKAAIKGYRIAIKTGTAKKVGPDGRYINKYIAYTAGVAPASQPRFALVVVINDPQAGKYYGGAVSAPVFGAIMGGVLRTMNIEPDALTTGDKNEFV
T2 sequence (G3XD46 whole entry): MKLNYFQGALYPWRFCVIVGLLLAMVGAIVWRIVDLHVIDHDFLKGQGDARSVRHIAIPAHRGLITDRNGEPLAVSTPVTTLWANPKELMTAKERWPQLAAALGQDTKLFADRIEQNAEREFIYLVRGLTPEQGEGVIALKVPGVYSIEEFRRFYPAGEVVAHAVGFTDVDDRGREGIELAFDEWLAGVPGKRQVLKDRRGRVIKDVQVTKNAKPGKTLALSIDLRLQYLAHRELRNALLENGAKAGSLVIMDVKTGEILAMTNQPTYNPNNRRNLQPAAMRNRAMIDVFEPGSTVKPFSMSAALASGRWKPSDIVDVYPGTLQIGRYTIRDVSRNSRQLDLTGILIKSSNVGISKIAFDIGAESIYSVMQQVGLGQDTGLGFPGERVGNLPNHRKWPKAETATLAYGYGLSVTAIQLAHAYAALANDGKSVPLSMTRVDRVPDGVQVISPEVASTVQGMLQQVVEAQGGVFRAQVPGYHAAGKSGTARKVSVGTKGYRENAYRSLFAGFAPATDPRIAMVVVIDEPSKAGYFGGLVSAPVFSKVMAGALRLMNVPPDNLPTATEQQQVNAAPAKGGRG

In assay [1], `CCN1CCN(C(=O)N[C@@H](C(=O)N[C@H]2Cc3cccc(C(=O)O)c3OB2O)c2ccc(P(C)(=O)O)cc2)C(=O)C1=O` (single isomer, unassigned) [Example 47] showed a pEC50 above 5.00. In assay [2], the pIC50 is above 5.00. Also, the MIC is 8 to 16 µg/mL (≈ 13.6 to 27.3 µM) with E. coli ATCC 25922; 8 to 16 µg/mL (≈ 13.6 to 27.3 µM) in the assay with E. coli AG100A; above 128 µg/mL in the assay on K. pneumoniae 848844; 32 to 64 µg/mL (≈ 54.6 to 109 µM) in the assay on A. baumannii ATCC 19606; 8 to 16 µg/mL (≈ 13.6 to 27.3 µM) in assay [3]; below 1 µg/mL in assay [4]. Besides, the MIC with N. gonorrhoeae WHO M is below 1 µg/mL; in the assay with N. gonorrhoeae WHO X it was 4 to 8 µg/mL (≈ 6.82 to 13.6 µM); in the assay with N. gonorrhoeae WHO Q, 1 to 2 µg/mL (≈ 1.71 to 3.41 µM); in the assay on N. gonorrhoeae CDC-0197, 1 to 2 µg/mL (≈ 1.71 to 3.41 µM).

For `N[C@@H](C(=O)N[C@H]1Cc2cccc(C(=O)O)c2OB1O)c1ccc(P(=O)(O)O)cc1` (single isomer, unassigned) [Example 171], the pEC50 in assay [1] was below 3.60. In assay [2], the pIC50 was below 3.60. In addition, the MIC in the assay with E. coli ATCC 25922 was above 128 µg/mL; with E. coli AG100A it was above 128 µg/mL; in the assay with K. pneumoniae 848844, above 128 µg/mL; with A. baumannii ATCC 19606, above 128 µg/mL; in assay [3], above 128 µg/mL; in [4] it was above 64 µg/mL. Further, the MIC in the assay with N. gonorrhoeae WHO M, with N. gonorrhoeae WHO X, with N. gonorrhoeae WHO Q and with N. gonorrhoeae CDC-0197 was above 64 µg/mL throughout.

Regarding `O=C(O)c1cccc2c1OB(O)[C@@H](NC(=O)[C@@H](NC(=O)c1ccn[nH]c1=O)c1ccc(P(=O)(O)O)cc1)C2` (single isomer, unassigned) [Example 177], in [1], the pEC50 is 4.30 to 5.00. Moreover, the pIC50 in [2] was above 5.00. The MIC is above 128 µg/mL in the assay on E. coli ATCC 25922; above 128 µg/mL in the assay with E. coli AG100A; above 128 µg/mL in the assay with K. pneumoniae 848844; above 128 µg/mL in the assay on A. baumannii ATCC 19606; above 128 µg/mL in assay [3]; 1 to 2 µg/mL (≈ 1.84 to 3.69 µM) in [4]. In addition, the MIC was below 1 µg/mL in the assay on N. gonorrhoeae WHO M, 16 to 32 µg/mL (≈ 29.5 to 59 µM) in the assay with N. gonorrhoeae WHO X, 4 to 8 µg/mL (≈ 7.38 to 14.8 µM) with N. gonorrhoeae WHO Q and 1 to 2 µg/mL (≈ 1.84 to 3.69 µM) with N. gonorrhoeae CDC-0197.

In turn, `O=C(O)c1cccc2c1OB(O)[C@@H](NC(=O)[C@H](NC(=O)c1ccn[nH]c1=O)c1ccc(P(=O)(O)O)cc1)C2` (single isomer, unassigned) [Example 178] gave a pEC50 in [1] above 5.00. Besides, the pIC50 in assay [2] is above 5.00. Besides, the MIC was above 128 µg/mL with E. coli ATCC 25922; 32 to 64 µg/mL (≈ 59 to 118 µM) in the assay with E. coli AG100A; above 128 µg/mL in the assay on K. pneumoniae 848844; 32 to 64 µg/mL (≈ 59 to 118 µM) with A. baumannii ATCC 19606; 8 to 16 µg/mL (≈ 14.8 to 29.5 µM) in assay [3]; below 1 µg/mL in assay [4]. The MIC is below 1 µg/mL in the assay with N. gonorrhoeae WHO M, 4 to 8 µg/mL (≈ 7.38 to 14.8 µM) with N. gonorrhoeae WHO X, 1 to 2 µg/mL (≈ 1.84 to 3.69 µM) in the assay on N. gonorrhoeae WHO Q and below 1 µg/mL in the assay on N. gonorrhoeae CDC-0197.

Regarding `Cn1cccc(C(=O)N[C@H](C(=O)N[C@H]2Cc3cccc(C(=O)O)c3OB2O)c2ccc(P(=O)(O)O)cc2)c1=O` (single isomer, unassigned) [Example 181], the negative logarithm of the EC50 (pEC50) in assay [1] is 3.60 to 4.30. Moreover, the pIC50 in assay [2] is 3.60 to 4.30. In addition, the MIC in the assay with E. coli ATCC 25922 was above 128 µg/mL; in the assay on E. coli AG100A, above 128 µg/mL; in the assay with K. pneumoniae 848844, above 128 µg/mL; in the assay with A. baumannii ATCC 19606 it was above 128 µg/mL; in [3] it was above 128 µg/mL; in [4], 16 to 32 µg/mL (≈ 28.8 to 57.6 µM). Besides, the MIC with N. gonorrhoeae WHO M, with N. gonorrhoeae WHO X, in the assay with N. gonorrhoeae WHO Q and with N. gonorrhoeae CDC-0197 was 16 to 32 µg/mL (≈ 28.8 to 57.6 µM) each time.

`Cn1cccc(C(=O)N[C@@H](C(=O)N[C@H]2Cc3cccc(C(=O)O)c3OB2O)c2ccc(P(=O)(O)O)cc2)c1=O` (single isomer, unassigned) [Example 182]: the pEC50 in [1] is above 5.00. Besides, in assay [2], the pIC50 is above 5.00. For the same compound, the MIC is above 128 µg/mL with E. coli ATCC 25922; 32 to 64 µg/mL (≈ 57.6 to 115 µM) in the assay with E. coli AG100A; above 128 µg/mL in the assay with K. pneumoniae 848844; above 128 µg/mL with A. baumannii ATCC 19606; 8 to 16 µg/mL (≈ 14.4 to 28.8 µM) in assay [3]; 1 to 2 µg/mL (≈ 1.8 to 3.6 µM) in assay [4]. Besides, the MIC in the assay on N. gonorrhoeae WHO M is below 1 µg/mL; with N. gonorrhoeae WHO X it was 16 to 32 µg/mL (≈ 28.8 to 57.6 µM); in the assay with N. gonorrhoeae WHO Q it was 1 to 2 µg/mL (≈ 1.8 to 3.6 µM); in the assay with N. gonorrhoeae CDC-0197 it was 1 to 2 µg/mL (≈ 1.8 to 3.6 µM).

In general, pEC50 refers to the EC50 on a negative log10 scale, so that one unit is a factor of ten. A higher pEC50 goes with a low EC50.
